The record followed here is ChEMBL document CHEMBL6109120, “Discovery of Novel SIK2/3 Inhibitors for the Potential Treatment of MEF2C+ Acute Myeloid Leukemia (AML)” (J Med Chem, 2025).

For orientation: IC50 means the concentration needed to halve the response being measured. A low value points to inhibition by little substance.

Molecules are shown by their SMILES.

The target in series [1] is MAP kinase-interacting serine/threonine-protein kinase 2 (Homo sapiens, UniProt Q9HBH9). Briefly: Binding affinity to human MKNK2 by KINOMEscan assay.
Sequence of MAP kinase-interacting serine/threonine-protein kinase 2 (Q9HBH9 whole entry): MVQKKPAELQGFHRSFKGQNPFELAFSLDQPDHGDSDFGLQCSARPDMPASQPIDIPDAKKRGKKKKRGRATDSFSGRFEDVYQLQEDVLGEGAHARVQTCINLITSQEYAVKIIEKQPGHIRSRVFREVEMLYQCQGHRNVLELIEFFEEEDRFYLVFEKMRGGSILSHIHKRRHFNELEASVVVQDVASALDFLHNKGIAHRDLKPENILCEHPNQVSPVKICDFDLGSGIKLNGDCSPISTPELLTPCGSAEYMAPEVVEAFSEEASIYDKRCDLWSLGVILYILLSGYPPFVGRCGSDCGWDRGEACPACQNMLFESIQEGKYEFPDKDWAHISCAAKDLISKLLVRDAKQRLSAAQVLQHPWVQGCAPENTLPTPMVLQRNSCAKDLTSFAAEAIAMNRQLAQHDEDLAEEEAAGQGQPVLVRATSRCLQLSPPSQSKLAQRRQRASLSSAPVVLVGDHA
Series [2] concerns the target T1, Serine/threonine-protein kinase ULK2 (Homo sapiens, UniProt Q8IYT8).
T1 sequence (Q8IYT8 whole entry): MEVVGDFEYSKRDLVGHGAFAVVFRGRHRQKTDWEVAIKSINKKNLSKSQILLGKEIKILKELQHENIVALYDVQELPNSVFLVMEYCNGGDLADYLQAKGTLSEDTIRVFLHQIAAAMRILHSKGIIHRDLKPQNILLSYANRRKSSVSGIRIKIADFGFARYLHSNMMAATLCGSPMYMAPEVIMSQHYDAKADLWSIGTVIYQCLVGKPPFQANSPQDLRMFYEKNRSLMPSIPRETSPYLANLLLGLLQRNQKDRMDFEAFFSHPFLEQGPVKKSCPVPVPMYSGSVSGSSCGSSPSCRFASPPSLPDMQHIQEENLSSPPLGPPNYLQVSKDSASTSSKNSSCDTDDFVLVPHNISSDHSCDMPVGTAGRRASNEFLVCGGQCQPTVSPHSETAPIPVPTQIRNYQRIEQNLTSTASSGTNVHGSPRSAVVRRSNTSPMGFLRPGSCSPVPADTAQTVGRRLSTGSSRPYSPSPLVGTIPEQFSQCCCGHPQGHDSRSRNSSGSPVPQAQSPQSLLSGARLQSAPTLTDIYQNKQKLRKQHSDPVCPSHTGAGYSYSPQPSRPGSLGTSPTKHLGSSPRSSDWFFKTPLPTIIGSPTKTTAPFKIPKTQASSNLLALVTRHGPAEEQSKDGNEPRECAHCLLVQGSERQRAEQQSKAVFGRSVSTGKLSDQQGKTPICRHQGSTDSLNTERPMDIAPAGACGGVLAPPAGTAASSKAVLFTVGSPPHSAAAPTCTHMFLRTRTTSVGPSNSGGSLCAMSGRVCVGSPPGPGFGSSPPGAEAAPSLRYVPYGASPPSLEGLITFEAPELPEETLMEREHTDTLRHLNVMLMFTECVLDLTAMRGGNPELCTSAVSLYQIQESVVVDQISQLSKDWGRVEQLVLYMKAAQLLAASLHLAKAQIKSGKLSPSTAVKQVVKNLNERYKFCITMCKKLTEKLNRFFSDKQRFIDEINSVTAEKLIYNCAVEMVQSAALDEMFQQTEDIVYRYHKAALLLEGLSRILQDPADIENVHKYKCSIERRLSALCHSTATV
Description: Binding affinity to human ULK2 by KINOMEscan assay

In series [3] the target is Voltage-gated inwardly rectifying potassium channel KCNH2 (Homo sapiens, UniProt Q12809). Briefly: Inhibition of hERG expressed in HEK cells assessed as K+ tail current by whole-cell electrophysiology. The format is toxicity, cell-based. In general terms: The hERG channel carries a current that helps repolarise heart muscle cells.
Sequence of Voltage-gated inwardly rectifying potassium channel KCNH2 (Q12809 whole entry): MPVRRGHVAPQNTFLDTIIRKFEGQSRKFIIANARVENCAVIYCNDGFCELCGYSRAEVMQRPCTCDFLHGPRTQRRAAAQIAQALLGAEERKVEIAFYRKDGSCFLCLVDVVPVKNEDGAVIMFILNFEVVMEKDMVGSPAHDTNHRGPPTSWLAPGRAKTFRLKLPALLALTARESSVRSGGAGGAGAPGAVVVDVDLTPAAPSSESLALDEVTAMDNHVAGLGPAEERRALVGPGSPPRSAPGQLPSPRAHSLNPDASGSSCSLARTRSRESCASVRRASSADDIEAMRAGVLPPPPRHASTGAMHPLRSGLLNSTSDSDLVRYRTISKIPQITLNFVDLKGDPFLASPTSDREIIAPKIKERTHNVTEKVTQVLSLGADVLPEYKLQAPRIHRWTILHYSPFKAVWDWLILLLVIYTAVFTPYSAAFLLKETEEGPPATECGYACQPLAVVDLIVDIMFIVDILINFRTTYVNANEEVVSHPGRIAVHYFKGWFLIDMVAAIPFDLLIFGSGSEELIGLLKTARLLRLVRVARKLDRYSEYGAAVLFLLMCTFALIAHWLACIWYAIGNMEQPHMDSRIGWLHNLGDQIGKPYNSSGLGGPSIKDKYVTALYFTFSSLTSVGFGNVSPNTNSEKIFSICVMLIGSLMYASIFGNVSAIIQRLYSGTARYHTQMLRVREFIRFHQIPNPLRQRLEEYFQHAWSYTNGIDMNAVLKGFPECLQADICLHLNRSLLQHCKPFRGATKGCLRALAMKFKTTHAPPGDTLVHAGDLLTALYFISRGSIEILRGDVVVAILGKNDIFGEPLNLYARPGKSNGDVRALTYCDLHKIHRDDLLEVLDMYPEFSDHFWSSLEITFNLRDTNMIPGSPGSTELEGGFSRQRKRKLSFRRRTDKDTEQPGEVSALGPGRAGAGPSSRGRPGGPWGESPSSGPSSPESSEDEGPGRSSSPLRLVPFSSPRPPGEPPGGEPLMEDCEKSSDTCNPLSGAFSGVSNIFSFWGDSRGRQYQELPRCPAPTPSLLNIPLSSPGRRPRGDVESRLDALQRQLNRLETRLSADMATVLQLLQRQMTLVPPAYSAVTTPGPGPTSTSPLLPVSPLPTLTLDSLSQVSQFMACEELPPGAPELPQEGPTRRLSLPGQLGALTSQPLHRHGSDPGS

On to `COc1nc(-c2cc(-c3cnn(C)c3)cnc2N)cc2c1C(=O)N(CC(F)(F)F)CC2`, for which the IC50 in series [1] was 0.015 µM; in series [2], 2.08 µM. For the same compound, in series [3], the “inhibition (INH)” value is given as 34%.
